Test [1] deals with CHO cells transfected with FIBCD1 cDNA. The test can be described thus: FIBCD1-mediated endocytosis of acetylated BSA in CHO cells. In kind it is cell-based, Chinese hamster. The note with it: for uptake and degradation of 125I labelled acetylated BSA: GlcNAc at 10 mM. As for the experimental part:
Degradation was measured, as the cell-mediated increase in of TCA-soluble radioactivity in the growth medium and cell-associated was determined by counting the radioactivity of the cell lysate. (A) CHO cells and (B) CHO/FIBCD1 cells. (C) Effect of lysosomal inhibitors chloroquine and leupeptin (both 100 μM) on endocytosis of NAc-BSA. Values are mean+/−1 SD of triplicate samples. […] Fluorescence microscopy of CHO-FReD (E) and CHO (F) after incubation with Alexa488 acetylated BSA.

In test [2] the target is T1, FIBCD1 ectodomain (Homo sapiens, UniProt Q8N539).
T1 construct: The V5-His tagged putative ectodomain of FIBCD1, encoding amino acid 54-461, was generated by PCR; made in house; host or cells: HEK293 (Flp-In T-REx), secreted via pSecTag/FRT/V5-His TOPO vector
T1 sequence (Q8N539 54-461): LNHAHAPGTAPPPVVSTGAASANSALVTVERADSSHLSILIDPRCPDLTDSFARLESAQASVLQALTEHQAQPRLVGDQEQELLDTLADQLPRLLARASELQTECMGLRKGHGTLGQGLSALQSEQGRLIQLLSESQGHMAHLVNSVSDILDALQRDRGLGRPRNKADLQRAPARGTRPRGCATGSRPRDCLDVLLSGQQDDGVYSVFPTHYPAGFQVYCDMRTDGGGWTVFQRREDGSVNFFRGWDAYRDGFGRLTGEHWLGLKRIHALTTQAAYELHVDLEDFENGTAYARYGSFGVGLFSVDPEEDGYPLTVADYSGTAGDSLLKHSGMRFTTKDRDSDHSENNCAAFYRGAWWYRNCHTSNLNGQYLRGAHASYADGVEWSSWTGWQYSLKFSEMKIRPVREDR
The test can be described thus: ELISA inhibition of binding between FIBCD1 ectodomain and acetylated BSA. As to conditions: for I50 relative (relative inhibitor potential): I50 of the best inhibitor divided by I50 of the compound; for IC50: read-out: I50 of the binding between FIBCD1 and acetylated BSA; for inhibition of binding of FIBCD1 to acetylated BSA: at a concentration of 50 mM. As for the experimental part: The ligand selectivity of FIBCD1 was investigated by inhibiting the binding of FIBCD1 ectodomain to acetylated BSA coated microtiter plates (FIG. 2G, Table 1).
(§1) An ELISA system was used to evaluate the ability of various acetylated and nonacetylated compounds to inhibit the binding between FIBCD1 ectodomain and acetylated BSA (Sigma). Microtiter plates (NUNC Maxisorp, Denmark) were coated with acetylated BSA (Sigma) or BSA (Sigma) and blocked with TBS/Tw before being incubated with FIBCD1 ectodomain samples diluted in TBS/Tw (5 mM CaCl2). The binding between FIBCD1 and acetylated BSA was also tested in the presence of 10 mM EDTA, 5 mM MnCl2 or 5 mM MgCl2 instead of CaCl2. After incubation overnight at 4° C. and washing, the wells were incubated for 2 h at room temperature with chicken anti-FIBCD1 antibodies diluted 1:1000 in TBS/Tw (5 mM CaCl2). The plates were washed with TBS/Tw (5 mM CaCl2) and incubated for 1 h with alcalic phosphatase-labelled anti-chicken IgY (whole molecule) (Sigma-Aldrich) diluted 1:1500 in TBS/Tw (5 mM CaCl2) followed by washing and developed with 1 mg/ml para-nitrophenylphosphate, disodium salt (PNPP) (Boehringer Mannheim, Germany) in substrate buffer.
The mixtures were incubated overnight in the acetylated BSA coated wells overnight at 4° C. and processed as described above.

Test [3] concerns the target T2, FIBCD1 (Homo sapiens, UniProt Q8N539).
T2 construct: The V5-His tagged putative ectodomain of FIBCD1, encoding amino acid 54-461, was generated by PCR; made in house; host or cells: HEK293 (Flp-In T-REx), secreted via pSecTag/FRT/V5-His TOPO vector
T2 sequence (Q8N539 54-461): T1 sequence (Q8N539 54-461)
The test can be described thus: ELISA binding of FIBCD1 to coated microtiter plates. The note with it: for substitution for calcium in binding to acetylated BSA: 5 mM MnCl2 or 5 mM MgCl2 instead of CaCl2; for binding of FIBCD1 to coated substance: ELISA, microtiter plates coated with the substance. As for the experimental part: (A) SDS-PAGE and Western blotting analysis of culture supernatant from HEK293 cells expression FIBCD1 in the non-reduced (lane 1) and reduced (lane 2) state developed with the monoclonal rat anti-FIBCD1 (HG-HYB-12-2). […] (D) Silver stained SDS-PAGE of fractions from (E) in the reduced and unreduced state. (E) Microtiterplates were coated with BSA or NAc-BSA and increasing amounts of FIBCD1 was added in the presence 5 mM CaCl2 or 10 mM EDTA. (F) Microtiterplates were coated with NAc-BSA and 100 ng/ml and FIBCD1 was added in the presence 0-1 mM CaCl2. (G) Microtiterplates were coated with NAc-BSA and increasing amounts of FIBCD1 was added in the presence 5 mM CaCl2, 5 mM MgCl2 or 5 mM MnCl2.
(A) Microtiter plates were coated with LPS 055, LPS 0111 LPS 026 or NAc-BSA. (B) Microtiterplates were coated with LTA, mannan, peptidoglycan or NAc-BSA and increasing concentrations of FIBCD1 was added. (C) Pull-down assays where 20 μg of the FIBCD1 (the FReD of FIBCD1) or as a positive control 20 μg of wheat germ agglutinin (WGA) was added to 2 mg insoluble chitin, cellulose, zymozane or beta-glucan. […] BSA was used as control. Pellet fractions were analyzed by SDS-PAGE and Coomassie blue staining.
as §1

In test [4] the target is T3, FIBCD1 (the FReD of FIBCD1) (Homo sapiens, UniProt Q8N539).
T3 construct: 20 μg of the FIBCD1 (the FReD of FIBCD1)
T3 sequence (Q8N539 235-458 limits assumed): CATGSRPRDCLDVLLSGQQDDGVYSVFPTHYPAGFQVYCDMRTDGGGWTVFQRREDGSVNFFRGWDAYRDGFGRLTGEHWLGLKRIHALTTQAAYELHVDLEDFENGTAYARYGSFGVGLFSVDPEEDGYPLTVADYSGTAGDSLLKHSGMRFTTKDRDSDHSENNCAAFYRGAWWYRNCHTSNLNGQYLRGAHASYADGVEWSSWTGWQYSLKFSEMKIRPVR
The test can be described thus: Pull-down assay of FIBCD1 (FReD) with insoluble polysaccharides. The class given is binding. As to conditions: 20 μg FIBCD1 FReD, 2 mg insoluble substance. The procedure:
(B) Microtiterplates were coated with LTA, mannan, peptidoglycan or NAc-BSA and increasing concentrations of FIBCD1 was added. (C) Pull-down assays where 20 μg of the FIBCD1 (the FReD of FIBCD1) or as a positive control 20 μg of wheat germ agglutinin (WGA) was added to 2 mg insoluble chitin, cellulose, zymozane or beta-glucan. […] BSA was used as control. Pellet fractions were analyzed by SDS-PAGE and Coomassie blue staining.

Where [5] appears, read: 100 ng/ml FIBCD1 ectodomain, 5 mM CaCl2, N.I. = less than 50% inhibition at 50 mM.

Like-named read-outs stand apart in the source and are kept apart here.

Regarding `CC(=O)N[C@H]1C(O)O[C@H](CO)[C@@H](O)[C@@H]1O` (some centres unmarked) [N-acetylglucosamine, N-acetyl glucosamine], in test [1] (CHO/FIBCD1 cells), the “uptake and degradation of 125I labelled acetylated BSA” value is listed as “inhibited”. For the same compound, in test [2], the “I50 relative (relative inhibitor potential)” value worked out at 0.5 and the IC50 worked out at 4 mM. With `C[C@H](N)C(=O)O` [Alanine, L-alanine, reference compound], the “I50 of the binding between FIBCD1 and acetylated BSA” value in test [2] (setting [5]) is reported as “N.I”. Take `[Mn+2]` [manganese]: in test [3], the “substitution for calcium in binding to acetylated BSA” value is reported as “could substitute for calcium”. As to N-acetyl bovine serum albumin [NAc-BSA], the “uptake and degradation of 125I labelled acetylated BSA” value in test [1] (CHO/FIBCD1 cells) is on record as “inhibited”. For the same compound, the entries for the “binding of FIBCD1 to coated substance” value in test [3] and in test [3] (listed as acetylated BSA) were “binding” and “bound”, respectively. For the compound lipopolysaccharide [LPS], the “binding of FIBCD1 to coated substance” value in test [3] was “no binding”.

In the case of “^125I-labeled NAc-BSA: acetylated BSA labelled with 125I using the chloroamine-T method”, the “time at which cell-associated radioactivity reached a plateau” value in test [1] (CHO/FIBCD1 cells, 37° C.) is given as “one”. For the same compound, the “uptake in non-transfected CHO cells” value in test [1] was “no uptake”.

Consider lipoteichoid acid [LTA], for which, in test [3], the “binding of FIBCD1 to coated substance” value is “no binding”. In the case of “Alexa488 labelled acetylated BSA: acetylated BSA coupled with Alexa Fluor 488 C5 maleimide”, in test [1] (fluorescence microscopy), the “uptake in CHO cells transfected with FIBCD1 cDNA” value was “mediate uptake”. In addition, the “uptake in non-transfected CHO cells” value in test [1] is on record as “no uptake”. Regarding `CC(=O)N[C@@H]1C(O)O[C@H](CO)[C@@H](O)[C@@H]1O` (some centres unmarked) [N-acetylmannoseamine, N-acetyl mannosamine], in test [2], the “I50 relative (relative inhibitor potential)” value amounted to 1 and the IC50 is 2 mM.

Turning to zymosan, the “binding of FIBCD1 in pull-down” value in test [4] was “no binding”. For `CCCC(=O)[O-].[Na+]` [Butyrate, sodium butyrate, reference compound], the “I50 of the binding between FIBCD1 and acetylated BSA” value in test [2] (setting [5]) was “N.I”. Besides, in test [2], the “inhibition of binding of FIBCD1 to acetylated BSA” value was “did not inhibit”. For the compound `N[C@H]1C(O)O[C@H](CO)[C@@H](O)[C@@H]1O` (some centres unmarked) [Glucosamine, glucosamine, reference compound], the “I50 of the binding between FIBCD1 and acetylated BSA” value in test [2] (setting [5]) is on record as “N.I”.

For `N[C@H]1C(O)O[C@H](CO)[C@H](O)[C@@H]1O` (some centres unmarked) [Galactoseamin, galactosamine, reference compound], in test [2] (setting [5]), the “I50 of the binding between FIBCD1 and acetylated BSA” value is on record as “N.I”. Still for that read-out and setting: the same measure for `N[C@@H]1C(O)O[C@H](CO)[C@@H](O)[C@@H]1O` (some centres unmarked) [Mannosamine, mannosamine, reference compound]: “N.I”.

`CC(=O)N[C@@H](C)C(=O)O` [N-acetylalanine]: in test [2], the “I50 relative (relative inhibitor potential)” value is given as 0.5 and the IC50 was found to be 4 mM. For `CCC(=O)[O-].[Na+]` [Propionate, sodium propionate, reference compound], the “I50 of the binding between FIBCD1 and acetylated BSA” value in test [2] (setting [5]) is “N.I”. In addition, the “inhibition of binding of FIBCD1 to acetylated BSA” value in test [2] is listed as “did not inhibit”. Regarding `O=C[C@H](O)[C@@H](O)[C@@H](O)[C@H](O)CO` [Galactose, galactose, reference compound], in test [2] (setting [5]), the “I50 of the binding between FIBCD1 and acetylated BSA” value was “N.I”. Regarding `CC(=O)N[C@@H]1[C@@H](O)[C@@H](O)[C@@H](CO)O[C@@H]1O` [N-acetylgalactoseamine], the IC50 in test [2] (setting [5]) stood at 5 mM. For the same compound, the “I50 relative (relative inhibitor potential)” value in test [2] worked out at 0.4. For `[Ca+2].[Cl-].[Cl-]` [calcium, calcium chloride], the “calcium concentration for optimum binding to acetylated BSA” value in test [3] (100 ng/ml FIBCD1, 0-1 mM CaCl2) worked out at 0.6 mM.

Turning to peptidoglycan, the “binding of FIBCD1 to coated substance” value in test [3] was “no binding”. Consider `[Mg]` [magnesium], for which the “substitution for calcium in binding to acetylated BSA” value in test [3] is listed as “could not”. For the compound `CC(=O)N[C@H]1[C@H]([C@H](O)[C@H](O)CO)OC(O)(C(=O)O)C[C@@H]1O` (some centres unmarked) [Sialic acid, N-acetylneuraminic acid], in test [2], the “I50 relative (relative inhibitor potential)” value was determined as 1 and the IC50 turned out to be 2 mM. mannan: the “binding of FIBCD1 to coated substance” value in test [3] was “no binding”. Regarding `CC(=O)OCC[N+](C)(C)C` [Acetylcholine, acetyl cholin], the IC50 in test [2] turned out to be 10 mM.

In the case of β-1,3-glucan, in test [4], the “binding of FIBCD1 in pull-down” value was “no binding”.

For cellulose, in test [4], the “binding of FIBCD1 in pull-down” value is on record as “no binding”.

The values are drawn from US20120020958A1, “FIBCD1 FOR THE PREVENTION AND TREATMENT OF DISEASES” (Dansk Universitet, priority 2008, published 2012).
